How the values were obtained:
Assay type in all cases: cell-based
[1] = system: Botryosphaeria berengeriana
[2] = system: Botrytis cinerea; assay: microbe, parasite or virus in culture; settings: read-out: median effective concentration (EC50), mycelium growth inhibitory activity
[3] = system: Sclerotinia sclerotirum; assay: microbe, parasite or virus in culture; settings: read-out: median effective concentration (EC50), mycelium growth inhibitory activity
[4] = system: Cochliobolus miyabeanus; assay: Antifungal activity test, mycelium growth inhibition on PDA medium; settings: Bipolaris oryzae, read-out: median effective concentration (EC50), mycelium growth inhibitory activity
[5] = system: Fusarium graminearum; assay: microbe, parasite or virus in culture; settings: read-out: median effective concentration (EC50), mycelium growth inhibitory activity

SMILES | median effective concentration (EC50), spore germination inhibitory activity [1] | EC50 [2] | EC50 [3] | EC50 [4] | EC50 [5]
O=C(NCc1ccccn1)C1(c2ccc(C(F)(F)F)cc2)CC1(Cl)Cl (centres unmarked) [I-A-36] | ≤ 200 ppm | – | – | – | –
O=C1c2ccccc2COc2ccc(C3(C(=O)NCc4ccccn4)CC3(Cl)Cl)cc21 (centres unmarked) [I-A-78] | – | ≤ 200 mg/L | ≤ 200 mg/L | ≤ 200 mg/L | –
CC(C)(C)c1ccc(C2(C(=O)NCc3ccccn3)CC2(Cl)Cl)cc1 (centres unmarked) [I-A-101] | – | ≤ 200 mg/L | ≤ 200 mg/L | ≤ 200 mg/L | ≤ 200 mg/L
O=C(NCc1ccccn1)C1(c2ccc(-c3noc(C(F)(F)F)n3)cc2)CC1(Cl)Cl (centres unmarked) [I-A-132] | – | ≤ 200 mg/L | ≤ 200 mg/L | ≤ 200 mg/L | ≤ 200 mg/L
O=C(NCc1ccccn1)C1(c2ccc(N=C(c3ccccc3)c3ccccc3)cc2)CC1(Cl)Cl (centres unmarked) [I-A-159] | – | ≤ 200 mg/L | ≤ 200 mg/L | ≤ 200 mg/L | –
Cc1ccc(CNC(=O)C2(c3ccc(I)cc3)CC2(Cl)Cl)nc1 (centres unmarked) [I-A-257] | – | ≤ 200 mg/L | ≤ 200 mg/L | ≤ 200 mg/L | ≤ 200 mg/L
Cc1ccc(CNC(=O)C2(c3ccc(-c4ccccc4F)cc3)CC2(Cl)Cl)nc1 (centres unmarked) [I-A-261] | – | ≤ 200 mg/L | ≤ 200 mg/L | ≤ 200 mg/L | ≤ 200 mg/L
Cc1ccc(CNC(=O)C2(c3ccc(C4=CCCC4)cc3)CC2(Cl)Cl)nc1 (centres unmarked) [I-A-267] | – | ≤ 200 mg/L | ≤ 200 mg/L | ≤ 200 mg/L | ≤ 200 mg/L
Cc1ccc(CNC(=O)C2(c3ccc(C4=CCCCC4)cc3)CC2(Cl)Cl)nc1 (centres unmarked) [I-A-268] | – | ≤ 200 mg/L | ≤ 200 mg/L | ≤ 200 mg/L | ≤ 200 mg/L
Cc1ccc(CNC(=O)C2(c3ccc(S(=O)(=O)c4ccccc4)cc3)CC2(Cl)Cl)[n+]([O-])c1 (centres unmarked) [I-A-280] | – | – | ≤ 200 mg/L | ≤ 200 mg/L | ≤ 200 mg/L
Cc1ccc(CNC(=O)C2(c3ccc(Oc4nc5ccccc5s4)cc3)CC2(Cl)Cl)nc1 (centres unmarked) [I-A-288] | – | ≤ 200 mg/L | ≤ 200 mg/L | ≤ 200 mg/L | ≤ 200 mg/L
CC(C)(C)c1ccc(C2(C(=O)N3CCc4cccnc4C3)CC2(Cl)Cl)cc1 (centres unmarked) [I-A-371] | – | – | ≤ 200 mg/L | ≤ 200 mg/L | ≤ 200 mg/L

Source: US20260206763A1, “AMIDE COMPOUNDS OR SALTS THEREOF, BACTERICIDAL AGENTS FOR AGRICULTURE AND HORTICULTURE CONTAINING SAID COMPOUNDS, AND METHOD OF USING SAME” (NIHON NOHYAKU CO., LTD., priority 2022, published 2026)
